Columns and labels:
Type in all cases: in vivo
kochia (Kochia scoparia) [1] = test: Test A preemergence, kochia; settings: 0 to 100 scale
Method in brief: (§1)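 Post: seedlings 2–10 cm, 1–2 leaves, foliar spray. Pre: soil spray after sowing in loam/sand blend. Both formulated in non-phytotoxic solvent with surfactant; injury scored visually 0–100 after ~10 d.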

[2] = test system: wheat (Triticum aestivum); test: Test A postemergence, wheat; settings: 0 to 100 scale
Method in brief: as §1

[3] = test system: foxtail, giant (Setaria faberii); test: Test A postemergence, giant foxtail; settings: 0 to 100 scale
Method in brief: as §1

[4] = test system: galium (catchweed bedstraw, Galium aparine); test: Test A postemergence, galium; settings: 0 to 100 scale
Method in brief: as §1

[5] = test system: blackgrass (Alopecurus myosuroides); test: Test A postemergence, blackgrass; settings: 0 to 100 scale
Method in brief: as §1

[6] = test system: barnyardgrass (Echinochloa crus-galli); test: Test A preemergence, barnyardgrass; settings: 0 to 100 scale
Method in brief: as §1

[7] = test system: barnyardgrass (Echinochloa crus-galli); test: Test B flooded paddy test, barnyardgrass; settings: Flood, 250 g ai/ha, applied to paddy water, 2-leaf stage, visual evaluation after 13 to 15 d
Method in brief: (§2)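 Each response is a visual 0–100 rating made against untreated controls, where 0 is no effect and 100 is complete control; a dash marks no result. Compound was dosed into 3 cm paddy water over 2-leaf plants, assessed after 13 to 15 d.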

[8] = test system: ragweed (common ragweed, Ambrosia elatior); test: Test A preemergence, ragweed; settings: 0 to 100 scale
Method in brief: as §1

[9] = test system: sedge, umbrella (small-flower umbrella sedge, Cyperus difformis); test: Test B flooded paddy test, umbrella sedge; settings: Flood, 250 g ai/ha, applied to paddy water, 2-leaf stage, visual evaluation after 13 to 15 d
Method in brief: as §2

[10] = test system: ryegrass, Italian (Lolium multiflorum); test: Test A postemergence, Italian ryegrass; settings: 0 to 100 scale
Method in brief: as §1

[11] = test system: barnyardgrass (Echinochloa crus-galli); test: Test A postemergence, barnyardgrass; settings: 0 to 100 scale
Method in brief: as §1

[12] = test system: pigweed (Amaranthus retroflexus); test: Test A preemergence, pigweed; settings: 0 to 100 scale
Method in brief: as §1

kochia (Kochia scoparia) [13] = test: Test A postemergence, kochia; settings: 0 to 100 scale
Method in brief: as §1

[14] = test system: foxtail, giant (Setaria faberii); test: Test A preemergence, giant foxtail; settings: 0 to 100 scale
Method in brief: as §1

[15] = test system: ryegrass, Italian (Lolium multiflorum); test: Test A preemergence, Italian ryegrass; settings: 0 to 100 scale
Method in brief: as §1

[16] = test system: pigweed (Amaranthus retroflexus); test: Test A postemergence, pigweed; settings: 0 to 100 scale
Method in brief: as §1

[17] = test system: ragweed (common ragweed, Ambrosia elatior); test: Test A postemergence, ragweed; settings: 0 to 100 scale
Method in brief: as §1

rice (Oryza sativa) = test: Test B flooded paddy test, rice; settings: Flood, 250 g ai/ha, applied to paddy water, 2-leaf stage, visual evaluation after 13 to 15 d
Method in brief: as §2

[18] = test system: ducksalad (Heteranthera limosa); test: Test B flooded paddy test, ducksalad; settings: Flood, 250 g ai/ha, applied to paddy water, 2-leaf stage, visual evaluation after 13 to 15 d
Method in brief: as §2

corn (Zea mays) = test: Test A postemergence, corn; settings: 0 to 100 scale
Method in brief: as §1

**Q.** For `Cc1cc(C)cc(OC[C@@H](C)Nc2ncc(C(F)(F)F)c(N)n2)c1` [Compound 25, N2-[(1R)-2-(3,5-dimethylphenoxy)-1-methylethyl]-5-(trifluoromethyl)-2,4-pyrimidinediamine], which “Plant response rating, Kochia” value (kochia (Kochia scoparia) [1]; 125 g ai/ha) is on record?
**A.** Its value is 20.

**Q.** What about the “Plant response rating, Kochia” value (kochia (Kochia scoparia) [1]; 500 g ai/ha) of the same compound?
**A.** Its value is 90.

**Q.** What about the plant injury at 125 g/ha ([2]; Triticum aestivum, post-emergence, 240 h, 125 g ai/ha, read-out: Plant response rating, Wheat) of the same compound?
**A.** Its plant injury at 125 g/ha is 0%.

**Q.** And the plant injury at 500 g/ha ([2]; Triticum aestivum, post-emergence, 240 h, 500 g ai/ha, read-out: Plant response rating, Wheat)?
**A.** Its plant injury at 500 g/ha is 30%.

**Q.** And the pest or weed control at 125 g/ha ([3]; Setaria faberi, post-emergence, 240 h, 125 g ai/ha, read-out: Plant response rating, Foxtail, Giant)?
**A.** The pest or weed control at 125 g/ha was 10%.

**Q.** And the pest or weed control at 500 g/ha ([3]; Setaria faberi, post-emergence, 240 h, 500 g ai/ha, read-out: Plant response rating, Foxtail, Giant)?
**A.** Its pest or weed control at 500 g/ha is 80%.

**Q.** And the pest or weed control at 125 g/ha ([4]; Galium, post-emergence, 240 h, 125 g ai/ha, read-out: Plant response rating, Galium)?
**A.** Its pest or weed control at 125 g/ha is 80%.

**Q.** And the pest or weed control at 500 g/ha ([4]; Galium, post-emergence, 240 h, 500 g ai/ha, read-out: Plant response rating, Galium)?
**A.** Its pest or weed control at 500 g/ha is 90%.

**Q.** What about the pest or weed control at 125 g/ha ([5]; Alopecurus myosuroides, post-emergence, 240 h, 125 g ai/ha, read-out: Plant response rating, Blackgrass) of the same compound?
**A.** The pest or weed control at 125 g/ha was 0%.

**Q.** What about the pest or weed control at 500 g/ha ([5]; Alopecurus myosuroides, post-emergence, 240 h, 500 g ai/ha, read-out: Plant response rating, Blackgrass) of the same compound?
**A.** The pest or weed control at 500 g/ha was 70%.

**Q.** What about the “Plant response rating, Barnyardgrass” value ([6]; 125 g ai/ha) of the same compound?
**A.** The value was 90.

**Q.** And the “Plant response rating, Barnyardgrass” value ([6]; 500 g ai/ha)?
**A.** The value was 100.

**Q.** What about the pest or weed control at 250 g/ha ([7]; Echinochloa crus-galli, 360 h, read-out: Plant response rating, Barnyardgrass (0 to 100 scale, 0 is no effect, 100 is complete control)) of the same compound?
**A.** The pest or weed control at 250 g/ha was 0%.

**Q.** And the “Plant response rating, Ragweed” value ([8]; 125 g ai/ha)?
**A.** Its value is 80.

**Q.** And the “Plant response rating, Ragweed” value ([8]; 500 g ai/ha)?
**A.** Its value is 100.

**Q.** What about the pest or weed control at 250 g/ha ([9]; Cyperus difformis, 360 h, read-out: Plant response rating, Sedge, Umbrella (0 to 100 scale, 0 is no effect, 100 is complete control)) of the same compound?
**A.** Its pest or weed control at 250 g/ha is 100%.

**Q.** What about the pest or weed control at 125 g/ha ([10]; Lolium multiflorum, post-emergence, 240 h, 125 g ai/ha, read-out: Plant response rating, Ryegrass, Italian) of the same compound?
**A.** The pest or weed control at 125 g/ha was 0%.

**Q.** And the pest or weed control at 500 g/ha ([10]; Lolium multiflorum, post-emergence, 240 h, 500 g ai/ha, read-out: Plant response rating, Ryegrass, Italian)?
**A.** The pest or weed control at 500 g/ha was 20%.

**Q.** What about the pest or weed control at 125 g/ha ([11]; Echinochloa crus-galli, post-emergence, 240 h, 125 g ai/ha, read-out: Plant response rating, Barnyardgrass) of the same compound?
**A.** Its pest or weed control at 125 g/ha is 50%.

**Q.** What about the pest or weed control at 500 g/ha ([11]; Echinochloa crus-galli, post-emergence, 240 h, 500 g ai/ha, read-out: Plant response rating, Barnyardgrass) of the same compound?
**A.** Its pest or weed control at 500 g/ha is 90%.

**Q.** And the “Plant response rating, Pigweed” value ([12]; 125 g ai/ha)?
**A.** The value was 60.

**Q.** And the “Plant response rating, Pigweed” value ([12]; 500 g ai/ha)?
**A.** Its value is 100.

**Q.** What about the pest or weed control at 125 g/ha (kochia (Kochia scoparia) [13]; Bassia scoparia, post-emergence, 240 h, 125 g ai/ha, read-out: Plant response rating, Kochia) of the same compound?
**A.** The pest or weed control at 125 g/ha was 60%.

**Q.** What about the pest or weed control at 500 g/ha (kochia (Kochia scoparia) [13]; Bassia scoparia, post-emergence, 240 h, 500 g ai/ha, read-out: Plant response rating, Kochia) of the same compound?
**A.** Its pest or weed control at 500 g/ha is 80%.

**Q.** What about the “Plant response rating, Foxtail, Giant” value ([14]; 125 g ai/ha) of the same compound?
**A.** The value was 50.

**Q.** And the “Plant response rating, Foxtail, Giant” value ([14]; 500 g ai/ha)?
**A.** The value was 100.

**Q.** What about the “Plant response rating, Ryegrass, Italian” value ([15]; 125 g ai/ha) of the same compound?
**A.** The value was 20.

**Q.** And the “Plant response rating, Ryegrass, Italian” value ([15]; 500 g ai/ha)?
**A.** The value was 70.

**Q.** What about the pest or weed control at 125 g/ha ([16]; Amaranthus retroflexus, post-emergence, 240 h, 125 g ai/ha, read-out: Plant response rating, Pigweed) of the same compound?
**A.** The pest or weed control at 125 g/ha was 70%.

**Q.** What about the pest or weed control at 500 g/ha ([16]; Amaranthus retroflexus, post-emergence, 240 h, 500 g ai/ha, read-out: Plant response rating, Pigweed) of the same compound?
**A.** The pest or weed control at 500 g/ha was 90%.

**Q.** And the pest or weed control at 125 g/ha ([17]; Ambrosia artemisiifolia, post-emergence, 240 h, 125 g ai/ha, read-out: Plant response rating, Ragweed)?
**A.** Its pest or weed control at 125 g/ha is 60%.

**Q.** What about the pest or weed control at 500 g/ha ([17]; Ambrosia artemisiifolia, post-emergence, 240 h, 500 g ai/ha, read-out: Plant response rating, Ragweed) of the same compound?
**A.** The pest or weed control at 500 g/ha was 90%.

**Q.** And the plant injury at 250 g/ha (rice (Oryza sativa); Oryza sativa, 360 h, read-out: Plant response rating, Rice (0 to 100 scale, 0 is no effect, 100 is complete control))?
**A.** The plant injury at 250 g/ha was 0%.

**Q.** What about the pest or weed control at 250 g/ha ([18]; Heteranthera limosa, 360 h, read-out: Plant response rating, Ducksalad (0 to 100 scale, 0 is no effect, 100 is complete control)) of the same compound?
**A.** Its pest or weed control at 250 g/ha is 0%.

**Q.** What about the Corn plant response rating (crop injury, 0 = no effect, 100 = complete kill) at 125 g/ha (corn (Zea mays); Zea mays, post-emergence, 240 h, 125 g ai/ha) of the same compound?
**A.** The Corn plant response rating (crop injury, 0 = no effect, 100 = complete kill) at 125 g/ha was 20%.

**Q.** What about the Corn plant response rating (crop injury, 0 = no effect, 100 = complete kill) at 500 g/ha (corn (Zea mays); Zea mays, post-emergence, 240 h, 500 g ai/ha) of the same compound?
**A.** Its Corn plant response rating (crop injury, 0 = no effect, 100 = complete kill) at 500 g/ha is 60%.

**Q.** What does the source list for `C[C@H](COc1ccccc1)Nc1ncc(C(F)(F)F)c(N)n1` [Compound 26]?
**A.** Plant response rating, Kochia (kochia (Kochia scoparia) [1]; 1000 g ai/ha): 0; Plant response rating, Wheat ([2]; 1000 g ai/ha): 0; Plant response rating, Foxtail, Giant ([3]; 1000 g ai/ha): 0; Plant response rating, Galium ([4]; 1000 g ai/ha): 60; Plant response rating, Blackgrass ([5]; 1000 g ai/ha): 0; Plant response rating, Barnyardgrass ([6]; 1000 g ai/ha): 10; Plant response rating, Barnyardgrass (0 to 100 scale, 0 is no effect, 100 is complete control) [7]: 0; Plant response rating, Ragweed ([8]; 1000 g ai/ha): 100; Plant response rating, Sedge, Umbrella (0 to 100 scale, 0 is no effect, 100 is complete control) [9]: 0; Plant response rating, Ryegrass, Italian ([10]; 1000 g ai/ha): 10; Plant response rating, Barnyardgrass ([11]; 1000 g ai/ha, 0 no effect, 100 complete control): 0; Plant response rating, Pigweed ([12]; 1000 g ai/ha): 80; Plant response rating, Kochia (kochia (Kochia scoparia) [13]; 1000 g ai/ha): 30; Plant response rating, Foxtail, Giant ([14]; 1000 g ai/ha): 50; Plant response rating, Ryegrass, Italian ([15]; 1000 g ai/ha): 20; Plant response rating, Pigweed ([16]; 1000 g ai/ha): 50; Plant response rating, Ragweed ([17]; 1000 g ai/ha): 30; Plant response rating, Rice (0 to 100 scale, 0 is no effect, 100 is complete control) (rice (Oryza sativa)): 0; Plant response rating, Ducksalad (0 to 100 scale, 0 is no effect, 100 is complete control) [18]: 0; Plant response rating, Corn (corn (Zea mays); 1000 g ai/ha): 10
